The source of these data is article PMC10224544, “Synthesis, Structural Elucidation and Pharmacological Applications of Cu(II) Heteroleptic Carboxylates” (Pharmaceuticals, 2023).

Assay [1] addresses butyrylcholinesterase (BChE) (Equus caballus, UniProt P81908). Kind of assay: biochemical. The settings on record: for inhibition of butyrylcholinesterase (% BChE activity): n = 3. On the procedure: (§1) The enzymes acetylcholinesterase (AChE) and butyrylcholinesterase (BChE) play an important role in the transfer of signals and physiological function. They assist acetylcholine to hydrolyze and produce choline and acetyl group in synaptic region. So, they are considered as targets in the management of Alzheimer’s disease. Herein, the compounds under study were evaluated for their potential to inhibit acetylthiocholine iodide (AChI) and butyrylthiocholine iodide (BChI) enzymes.
(§2) The well-known Ellman’s assay was implemented to evaluate the inhibitory potential using acetylthiocholine iodide (AChI) and butyrylthiocholine iodide (BChI) as substrates, respectively. The basic principle of the assay is the hydrolysis of acetylthiocholine iodide and butyrylthiocholine iodide by their corresponding enzymes, resulting in the formation of 5-thio-2-nitrobenzoate anion.
(§3) To carry out the assay, 0.1 M buffer solution with pH 8 was prepared as per the cited literature where the pH was adjusted using KOH (potassium hydroxide). Using the freshly prepared buffer and following the dilution, final concentrations of 0.03 U/mL for AChE (518 U/mg solid) and 0.01 U/mL for BChE (7–16 U/mg) were obtained. […] After that, the final solution of each of the AChE and BChE was prepared in distilled water in the presence of […] DTNB and were stored at 8 °C. The experiment was performed by taking 205 µL of inhibitor (tested compound) along with 5 µL of prepared solutions of enzymes, followed by the addition of 5 μL DTNB reagent. They were then incubated for about 15 min in a water bath at a temperature of 30 °C. Later on, 5 µL substrate solution was added to them which were subjected to absorption check at 412 nm. […] The temperature of the spectrophotometer was adjusted at 30 °C and then, following the reaction time of 4 min, the absorbance values were noted after regular intervals. The experiment was repeated, and change in absorption with time was used to calculate the percentage activity of enzyme and enzyme inhibitor [59]. The p values, or calculated probability levels, are categorized as: 5% (p < 0.05), 1% (p < 0.01) and 0.1% (p < 0.001). p < 0.05 means statistically significant and p < 0.001 means highly statistically significant.

A short description of assay [2]: DPPH scavenging assay. The settings on record: Comp. Conc. 62.5 µg/mL; mean ± S.E.M, n = 3. (In general: The DPPH test is a chemical assay of radical scavenging.)
Assay [3] has as its target acetylcholinesterase (AChE) (Electrophorus electricus, UniProt O42275). Kind of assay: biochemical. The settings on record: for Inhibition of Acetylcholinesterase (%AChE Activity): n = 3. Type of assay: biochemical. On the procedure: The synthesized compounds were evaluated for acetylcholinesterase (ACh) and butyrylcholinesterase (BCh) enzyme inhibitory activities.
as §1, §2, §3

The nature of assay [4]: DPPH scavenging assay. The settings on record: for DPPH Free Radical Scavenging Ability: mean ± S.E.M, n = 3. From the text:
The antioxidant potential of the free acids and their Cu(II) carboxylates was explored via the DPPH method using ascorbic acid as a reference. The DPPH, with a single unpaired electron, is capable of accepting a hydrogen or electron and gives a strong absorption at 517 nm. The absorption generally decreases when it accepts a hydrogen or electron from an antioxidant, forming a stable molecule. The results given in Table 5 indicate that the compounds under study show a moderate level of antioxidant potential. This activity may be attributed to the various structural and electronic factors like coordination geometry, redox properties, chelate ring size, degree of unsaturation, etc.. The transfer of proton or electron from an antioxidant to DPPH results in the formation of species that undergo other reactions like coupling, fragmentation, and addition, which affect the rate and stoichiometry of the reaction.
The compounds under study were subjected to DPPH scavenging ability test as per cited literature. A 0.004% solution of reagent DPPH was added to the different concentrations of tested compounds (i.e., 125, 250, 500 and 1000 μg/mL) and the reaction mixture was incubated subsequently for about thirty minutes in dark. Ascorbic acid was used as positive control. The UV-3000 O.R.I. Germany was used to record the change in absorption of the reaction mixture at 517 nm and the percentage scavenging ability of the compounds under study was determined using formula: % scavenging activity =Absorbance of control−Absorbance of compounds /Absorbance of control×100
The experiments were repeated thrice. The GraphPad Prism® (version 4.0, Sandiego, CA, USA) was used to calculate the IC50 values.

Assay [5] in a line: Hydrogen peroxide scavenging assay. Conditions: for H2O2 free radical scavenging ability: mean ± S.E.M, n = 3. Here is the method:
In addition to DPPH the ligand acids and their complexes were also evaluated for their peroxide scavenging ability test. Hydrogen peroxide (H2O2) is a biologically important, non-radical reactive oxygen species (ROS) that can influence several cellular processes. It is a weak oxidizing agent and can inactivate a few enzymes directly, usually via oxidation of essential thiol (-SH) groups. It can cross cell membranes rapidly, and inside the cell, H2O2 probably reacts with Fe^2+ (and possibly Cu^2+) ions to form the hydroxyl radical, which may be the origin of many of its toxic effects. It is, therefore, biologically advantageous for cells to control the amount of hydrogen peroxide that is allowed to accumulate.
The ligand acids and their Cu(II) carboxylates were further subjected to H2O2 scavenging ability test potential by following the procedure as per cited literature. A 2 mM solution of H2O2 was made in 50 mM phosphate buffer having a pH 7.4. In the next step, 0.1 mL of the screened compounds was added to the 0.3 mL (50 mM) of phosphate buffer, then 0.6 mL of H2O2 was added and the solution was vortexed. After following the incubation period of 10 min, the absorption was 230 nm in comparison to the blank.

Chain of acetylcholinesterase (AChE) (O42275 24-633): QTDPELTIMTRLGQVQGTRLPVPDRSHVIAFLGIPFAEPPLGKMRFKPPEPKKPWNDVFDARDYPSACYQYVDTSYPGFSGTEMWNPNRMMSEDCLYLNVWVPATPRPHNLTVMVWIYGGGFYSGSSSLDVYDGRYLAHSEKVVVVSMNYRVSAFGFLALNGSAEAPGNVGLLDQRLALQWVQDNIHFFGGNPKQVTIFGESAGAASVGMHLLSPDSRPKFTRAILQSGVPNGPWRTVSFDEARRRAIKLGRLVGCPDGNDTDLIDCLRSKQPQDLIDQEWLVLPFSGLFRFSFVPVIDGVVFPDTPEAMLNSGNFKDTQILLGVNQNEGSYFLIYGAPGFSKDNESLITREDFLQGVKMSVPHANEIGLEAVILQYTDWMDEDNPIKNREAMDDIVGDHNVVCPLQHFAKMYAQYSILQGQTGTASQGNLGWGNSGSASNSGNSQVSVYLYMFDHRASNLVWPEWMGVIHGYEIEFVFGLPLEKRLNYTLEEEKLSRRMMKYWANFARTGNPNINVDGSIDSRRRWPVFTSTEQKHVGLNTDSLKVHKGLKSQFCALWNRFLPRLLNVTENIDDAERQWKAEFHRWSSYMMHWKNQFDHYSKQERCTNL
Chain of butyrylcholinesterase (BChE) (P81908 whole entry): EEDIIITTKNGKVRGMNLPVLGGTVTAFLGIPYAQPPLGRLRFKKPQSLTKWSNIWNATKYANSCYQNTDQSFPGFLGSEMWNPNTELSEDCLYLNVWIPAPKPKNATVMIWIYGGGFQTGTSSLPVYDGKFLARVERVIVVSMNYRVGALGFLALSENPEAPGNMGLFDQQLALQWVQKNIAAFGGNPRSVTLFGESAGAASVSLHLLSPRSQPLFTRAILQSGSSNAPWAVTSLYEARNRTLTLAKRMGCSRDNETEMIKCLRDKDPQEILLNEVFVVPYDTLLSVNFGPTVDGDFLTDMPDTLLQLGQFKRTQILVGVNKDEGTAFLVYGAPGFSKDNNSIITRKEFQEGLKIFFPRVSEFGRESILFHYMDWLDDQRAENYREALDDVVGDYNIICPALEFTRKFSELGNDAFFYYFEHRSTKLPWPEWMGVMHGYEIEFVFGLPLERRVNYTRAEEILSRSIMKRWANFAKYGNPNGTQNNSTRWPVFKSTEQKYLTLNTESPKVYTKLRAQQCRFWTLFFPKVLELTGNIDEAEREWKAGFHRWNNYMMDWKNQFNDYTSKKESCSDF

`N#Cc1cccnc1.N#Cc1cccnc1.O=C([O-])Cc1cccc(Cl)c1.O=C([O-])Cc1cccc(Cl)c1.O=C([O-])Cc1cccc(Cl)c1.O=C([O-])Cc1cccc(Cl)c1.[Cu+2].[Cu+2]` [Complex 4, Cu2(3-ClC6H4COO)4(3-CNPy)2]: in assay [1], the “IC50, inhibition of butyrylcholinesterase” value was determined as 03 µg/mL. Also, the “inhibition of butyrylcholinesterase (% BChE activity)” value in assay [1] (Comp. Conc. 62.5 µg/mL) is recorded as 68.52 ± 0.38 %; in assay [1] (Comp. Conc. 125 µg/mL), 72.64 ± 0.16 %; in assay [1] (Comp. Conc. 250 µg/mL) it was 77.61 ± 1.70 %; in assay [1] (Comp. Conc. 500 µg/mL) it was 81.94 ± 0.45 %; in assay [1] (Comp. Conc. 1000 µg/mL), 86.47 ± 0.22 ^⸸ %. For the same compound, the “DPPH Free Radical Scavenging Ability” value in “DPPH scavenging assay [2]” worked out at 61.93 ± 1.13 %; in “DPPH scavenging assay [4]” (Comp. Conc. 125 µg/mL), 68.30 ± 0.64 %; in “DPPH scavenging assay [4]” (Comp. Conc. 250 µg/mL) it was 73.34 ± 0.63 %; in the assay “DPPH scavenging assay [4]” (Comp. Conc. 500 µg/mL) it was 78.30 ± 0.64 %; in the assay “DPPH scavenging assay [4]” (Comp. Conc. 1000 µg/mL), 83.17 ± 0.72 %. In assay [3], the “IC50, Inhibition of Acetylcholinesterase” value turned out to be 6 µg/mL. Further, the “Inhibition of Acetylcholinesterase (%AChE Activity)” value in assay [3] (Comp. Conc. 62.5 µg/mL) is given as 67.90 ± 1.16 %; in assay [3] (Comp. Conc. 125 µg/mL), 72.34 ± 0.55 %; in assay [3] (Comp. Conc. 250 µg/mL) it was 78.36 ± 0.49 ^⸸ %; in assay [3] (Comp. Conc. 500 µg/mL), 83.39 ± 0.49 %; in assay [3] (Comp. Conc. 1000 µg/mL), 89.39 ± 0.60 %. Moreover, the “IC50, DPPH Free Radical Scavenging Ability” value in the assay “DPPH scavenging assay [4]” is reported as 8.45 µg/mL. Also, the “IC50, H2O2 free radical scavenging ability” value in assay [5] is 8.71 µg/mL. Besides, the “H2O2 free radical scavenging ability” value in assay [5] (Comp. Conc. 62.5 µg/mL) is recorded as 63.47 ± 0.56 %; in assay [5] (Comp. Conc. 125 µg/mL) it was 67.74 ± 0.61 %; in assay [5] (Comp. Conc. 250 µg/mL), 73.67 ± 0.61 %; in assay [5] (Comp. Conc. 500 µg/mL), 78.76 ± 0.58 %; in assay [5] (Comp. Conc. 1000 µg/mL), 85.00 ± 0.30 ^⸸ %.
